From US4576949A, “Use of 5,6,7,8-tetrahydroquinolines and 5,6-dihydropyrindines as leukotriene and lipoxygenase inhibitors and the novel 3-substituted compounds therein” (The Upjohn Company, priority 1984, dated 1986)

Tested on: LTC/LTD
Assay: inhibition of leukotriene C and D (LTC/LTD) synthesis in vitro
Type: cell-based
Conditions: for activity at 1 µg / LTC/LTD inhibition, expressed as % of control, at 1.0: 1.0 μg; for activity at 1 µg: read-out: LTC/LTD inhibition, expressed as % of control, at 1.0; for activity at 10 µg: read-out: LTC/LTD inhibition, expressed as % of control, at 10 μg; for activity at 0.1 µg: 0.1 μg, read-out: LTC/LTD inhibition, expressed as % of control, at 0.1
Text: Thus, the following TABLE II provides examples of the biological activity as determined by methods known in the art (see Bach, M. K., et al., 6,9-deepoxy-6,9-phenylimino-Δ-6,8-prostaglandin I1, (U-60,257). A New Inhibitor of Leukotriene C and D Synthesis: In Vitro Studies. Prostaglandins 23, 759-771, 1982.) for the present invention having formula II.
^a Values for inhibition are expressed as % of control.
LTC/LTD is leukotriene C or D.

Row | SMILES | activity at 1 µg [%] | activity at 10 µg (10 μg) [%] | activity at 0.1 µg [%] | LTC/LTD inhibition, expressed as % of control, at 1.0 | LTC/LTD inhibition, expressed as % of control, at 10 μg (10 μg)
1 | COC(=O)C=Cc1cc2c(nc1C)C(=Cc1ccccc1)CCC2 [3-[5,6,7,8-Tetrahydro-2-methyl-8-(phenylmethylene)-3-quinolinyl]-2-propenoic acid methyl ester] | 99 | 117 | – | – | –
2 | CC(=O)Oc1ccc(C=C2CCc3cccnc32)cc1 [4-[(5,6-Dihydro-7H-pyrindin-7-ylidene)methyl]phenol acetate] | 88 | 45 | – | – | –
3 | CCOC(=O)c1cc2c(nc1C)C(Cc1ccccc1)CCC2 (centres unmarked) [5,6,7,8-Tetrahydro-2-methyl-8-(phenylmethyl)-3-quinolinecarboxylic acid ethyl ester] | – | – | 110 | – | –
4 | CCOC(=O)c1cc2c(nc1C)C(=Cc1ccccc1)CCC2 [5,6,7,8-Tetrahydro-2-methyl-8-(phenylmethylene)-3-quinolinecarboxylic acid ethyl ester] | 101 | – | – | 96 % of control | –
5 | CCOC(=O)c1cc2c(nc1C)C(CCCCCO)CCC2 (centres unmarked) [5,6,7,8-Tetrahydro-8-(5-hydroxypentyl)-2-methyl-3-quinolinecarboxylic acid ethyl ester] | 121 | – | – | 140 % of control | –
6 | CCOC(=O)c1cc2c(nc1C)C(=Cc1ccc(OC(C)=O)cc1)CCC2 [8-[[4-(Acetyloxy)phenyl]methylene]-5,6,7,8-tetrahydro-2-methyl-3-quinolinecarboxylic acid ethyl ester] | 78 | 34 | 89 | – | –
7 | CCOC(=O)c1cc2c(nc1C)C(CC(=O)CCCO)CCC2 (centres unmarked) [N; CHCO(CH2)3 OH; n 1; R8 CH3; R9 CO2 Et, 5,6,7,8-Tetrahydro-8-(5-hydroxy-2-oxopentyl)-2-methyl-3-quinolinecarboxylicacid ethyl ester] | 52 | 41 | 19 | – | –
8 | C(=C1CCCc2cccnc21)c1ccccc1 [N; XII wherein M is H; n 1; R8 H; R9 H, 5,6,7,8-Tetrahydro-8-(phenylmethylene)-quinoline] | 105 | 33 | – | – | –
9 | CCOC(=O)c1cc2c(nc1C)C(=Cc1ccco1)CCC2 [N; XIV; n 1; R8 CH3; R9 CO2 Et, 8-(2-Furanylmethylene)-5,6,7,8-tetrahydro-2-methyl-3-quinolinecarboxylic acid ethyl ester] | – | 16 | – | – | 31 % of control
10 | CCOC(=O)c1cc2c(nc1C)C(CC1CCCO1)CCC2 (centres unmarked) [N; XIX; n 1; R8 CH3; R9 CO2 Et] | 67 | 52 | – | – | –
11 | C(=C1CCc2cccnc21)c1cccs1 [N; XV; n 0; R8 H; R9 H, 5,7 -Dihydro-7-(2-thienylmethylene)-5H-1-pyrindine] | 67 | 15 | – | – | –
